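Where inhibition never reached the appropriate level, the endpoint shown equals the highest concentration tested. Otherwise, values were interpolated linearly from a five-concentration, 48-hour dose response in 96-well plates. Here, GI50 denotes the concentration required for 50% inhibition of growth.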 The source made the active and inactive calls. No stated cut-off is given here; in the data, active = GI50 up to about 1.1 µM and inactive = higher. Bounds are passed on as bounds.

From ChEMBL document CHEMBL1201862, “PubChem BioAssay data set” (2004) come the findings set out here.

Holding throughout (assay): inhibition of tumour cell growth, NCI panel, 48 h
Experiment [1] relates to BT-549.
The subject of experiment [2] is SW-620.
Experiment [3] has as its system MDA-MB-435.
Experiment [4] concerns HCT-116.
In experiment [5] the test system is SR.
Experiment [6] concerns OVCAR-4.
Experiment [7] has as its system MDA-N.
Experiment [8] concerns UACC-62.
The subject of experiment [9] is SK-OV-3.
In experiment [10] the test system is KM12.
The test system of experiment [11] is SF-295.
In experiment [12] the test system is T47D.
Experiment [13] deals with OVCAR-8.
Experiment [14] has as its system DU-145.
The subject of experiment [15] is OVCAR-3.
For experiment [16], the system named is SF-268.
The subject of experiment [17] is A549.
Experiment [18] concerns NCI-H23.
In experiment [19] the test system is CCRF-CEM.

For `Nc1nc(N)c2c3c(cnc2n1)CC(c1ccccc1)CC3` (stereo not given), the GI50 in experiment [1] is 17 µM (inactive); in experiment [2], 11.4 µM (inactive); in experiment [3], 6.76 µM (inactive); in [4] it was 2.86 µM (inactive); in experiment [5] it was 10.6 µM (inactive); in experiment [6], 14.3 µM (inactive). Further, the GI50 in experiment [7] was 3.7 µM (inactive); in experiment [8], 1.11 µM (active); in experiment [9], 21.5 µM (inactive); in [10], 23.9 µM (inactive); in experiment [11], 10.1 µM (inactive); in experiment [12] it was 23.9 µM (inactive). Moreover, the GI50 is 7.16 µM (inactive) in experiment [13]; 25.4 µM (inactive) in experiment [14]; 31 µM (inactive) in experiment [15]; 11.9 µM (inactive) in experiment [16]; 2.03 µM (inactive) in experiment [17].

In the case of `N#CCCN(C(=O)Nc1ccc(NC(=O)N(CCC#N)c2ccccc2)cc1)c1ccccc1`, the GI50 in [1], in experiment [2], in experiment [3], in experiment [4], in experiment [5] and in experiment [6] was > 100 µM (inactive) throughout. The GI50 in experiment [7], in experiment [8], in experiment [9], in [10], in experiment [11] and in experiment [18] was > 100 µM (inactive) in each case. Moreover, the GI50 in experiment [12], in experiment [13], in experiment [14], in experiment [15], in experiment [16] and in [17] was > 100 µM (inactive) each time.

For the compound `Cc1nn2c(N)cc(=O)nc2nc1/C=C/c1ccc(N(C)C)cc1`, the GI50 was < 0.01 µM (active) in [19]; > 32 µM (inactive) in [1]; > 100 µM (inactive) in [2]; 7.93 µM (inactive) in [3]; 12 µM (inactive) in [4]; > 100 µM (inactive) in [5]. Moreover, the GI50 was > 26.5 µM (inactive) in experiment [6]; 5.82 µM (inactive) in experiment [7]; 5.02 µM (inactive) in experiment [8]; > 100 µM (inactive) in [9]; > 28.8 µM (inactive) in experiment [10]; > 79.3 µM (inactive) in experiment [11]. For the same compound, the GI50 was 10.4 µM (inactive) in experiment [18]; > 100 µM (inactive) in [12]; > 25.2 µM (inactive) in experiment [13]; > 100 µM (inactive) in [14]; > 100 µM (inactive) in [16]; 16.9 µM (inactive) in [17].

As to `COC(=O)c1ccc2[nH]c3c(c2c1)CC(=O)Nc1ccccc1-3`, the GI50 is 1.86 µM (inactive) in experiment [1]; > 100 µM (inactive) in experiment [2]; > 100 µM (inactive) in experiment [3]; > 100 µM (inactive) in experiment [4]; 7.28 µM (inactive) in experiment [5]; 0.673 µM (active) in experiment [6]. The GI50 was > 100 µM (inactive) in experiment [7]; > 100 µM (inactive) in [8]; 41.7 µM (inactive) in experiment [9]; > 100 µM (inactive) in experiment [10]; > 100 µM (inactive) in [11]; > 100 µM (inactive) in experiment [12]. For the same compound, the GI50 in experiment [13] was 5.9 µM (inactive); in experiment [14], 45.7 µM (inactive); in experiment [15], > 100 µM (inactive); in experiment [16] it was 9.18 µM (inactive); in experiment [17], > 100 µM (inactive).
